Measurements published in patent publication US10300065B2, “Method of treating or prevention of atherothrombotic events in patients with history of myocardial infarction” (ASTRAZENECA AB, priority 2015, dated 2019).
Where two headings read alike, the source gives them in different places.

What was measured:
platelets = assay: Light transmittance aggregometry (LTA; ADP 20 uM), platelet function substudy; assay type: cell-based, human; conditions: for Emax: Homo sapiens, Platelet, mean (SD)
Procedure: The pharmacokinetics (PK) and pharmacodynamics of the 60 mg bid dose had not previously been studied. […] 180 patients who had received >4 weeks of study medication had blood sampling in the morning pre-maintenance dose and again 2 h post-dose. All patients were receiving aspirin. […] Well-known VerifyNow® P2Y12 assay and light transmittance aggregometry (LTA; ADP 20 uM) were performed. Groups were compared using Kruskal-Wallis test with significance attached to P<0.01 to allow for multiple group comparisons.

thromboxane B2 = conditions: either ticagrelor group

CCCSc1nc(N[C@@H]2C[C@H]2c2ccc(F)c(F)c2)c2nnn([C@@H]3C[C@H](OCCO)[C@@H](O)[C@H]3O)c2n1 [Ticagrelor, (1S,2S,3R,5S)-3-[7-{[(1R,2S)-2-(3,4-difluorophenyl)cyclopropyl]amino}-5-(propylthio)-3H-[1,2,3]-triazolo[4,5-d]pyrimidin-3-yl]-5-(2-hydroxyethoxy)cyclopentane-1,2-diol]
Platelet reactivity pre- and post-dose as measured by LTA (platelets; 90 mg vs 60 mg): numerically but not significantly lower with 90 mg than 60 mg
Emax (platelets; 2 h, ticagrelor 60 mg bid, 2 h post dose, read-out: LTA Max response (maximum % aggregation response) Post dose): 33%
Emax (platelets; 2 h, ticagrelor 90 mg bid, 2 h post dose, read-out: LTA Max response (maximum % aggregation response) Post dose): 29%
Emax (platelets; ticagrelor 60 mg bid, pre dose, read-out: LTA Max response (maximum % aggregation response) Pre dose): 39%
Emax (platelets; ticagrelor 90 mg bid, pre dose, read-out: LTA Max response (maximum % aggregation response) Pre dose): 36%
serum thromboxane B2 levels vs placebo group (thromboxane B2): no differences
